# Legend:
# corn = test: Test B pre/postemergence corn; format: in vivo, Zea mays
# Outline: (§1)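 Response is a visual 0-to-10 score relative to untreated plants, where 0 means no effect and 10 means complete control, taken twelve to sixteen days after application. Treatments went onto soil at planting and onto foliage of 1- to 4-leaf plants, using a surfactant-containing non-phytotoxic solvent.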
# sugar beet = test: Test B pre/postemergence sugar beet; format: in vivo, Beta vulgaris
# Outline: as §1
# wild oat = test: Test B pre/postemergence wild oat; format: in vivo, Avena fatua
# Outline: as §1
# rape = test: Test B pre/postemergence rape; format: in vivo, Brassica napus
# Outline: as §1
# bedstraw = test: Test B pre/postemergence bedstraw; format: in vivo, Galium aparine
# Outline: as §1
# blackgrass = test: Test B pre/postemergence blackgrass; format: in vivo, Alopecurus myosuroides
# Outline: as §1
# purple nutsedge = test: Test B pre/postemergence purple nutsedge; format: in vivo, Cyperus rotundus; details: for Plant response rating, Nutsedge: scale of 0 to 10 where 0 is no effect and 10 is complete control
# Outline: as §1
# surinam grass = test: Test B pre/postemergence surinam grass; format: in vivo, Brachiaria decumbens
# Outline: as §1
# morningglory = test: Test B pre/postemergence morningglory; format: in vivo, Ipomoea hederacea
# Outline: as §1
# cocklebur = test: Test B pre/postemergence cocklebur; format: in vivo, Xanthium strumarium
# Outline: as §1
# pigweed = test: Test B pre/postemergence pigweed; format: in vivo, Amaranthus retroflexus
# Outline: as §1
# crabgrass = test: Test B pre/postemergence crabgrass; format: in vivo, Digitaria sanguinalis
# Outline: as §1
# velvetleaf = test: Test B pre/postemergence velvetleaf; format: in vivo, Abutilon theophrasti
# Outline: as §1
# soybean = test: Test B pre/postemergence soybean; format: in vivo, Glycine max
# Outline: as §1
# giant foxtail = test: Test B pre/postemergence giant foxtail; format: in vivo, Setaria faberii
# Outline: as §1
# wheat = test: Test B pre/postemergence wheat; format: in vivo, Triticum aestivum
# Outline: as §1
# [1] = Postemergence, Rate 62 g/ha, scale of 0 to 10, 0 is no effect, 10 is complete control
# [2] = Postemergence, Rate 125 g/ha, scale 0 to 10, 0 is no effect, 10 is complete control
# [3] = Postemergence, Rate 500 g/ha, scale of 0 to 10 where 0 is no effect and 10 is complete control
# [4] = Preemergence, Rate 62 g/ha, scale 0 to 10 (0 no effect, 10 complete control)
# [5] = Preemergence, Rate 125 g/ha, scale 0 to 10, 0 is no effect, 10 is complete control
# [6] = Preemergence, Rate 500 g/ha, scale of 0 to 10 where 0 is no effect and 10 is complete control
# [7] = Rate 250 g/ha, Postemergence, scale of 0 to 10 where 0 is no effect and 10 is complete control
smiles,measurement,setting,value
COCCOCn1c(=O)on(C(=O)N(c2ccccc2)C(C)C)c1=O [Compound 564],Corn plant response rating,corn; [1],0
same,Corn plant response rating,corn; [2],0
same,"Plant response rating, Corn",corn; [3],6
same,Corn plant response rating,corn; [4],2
same,Corn plant response rating,corn; [5],4
same,Corn plant response rating (0 to 10 scale),"corn; Preemergence, Rate 250 g/ha",4
same,Corn plant response rating,corn; [6],9
same,"Plant response rating, Corn",corn; [7],0
same,Sugarbeets plant response rating,sugar beet; [1],0
same,"Plant response rating, Sugarbeets",sugar beet; [3],2
same,Sugarbeets plant response rating,sugar beet; [4],2
same,Sugarbeets plant response rating,sugar beet; [5],2
same,Sugarbeets plant response rating (0 to 10 scale),"sugar beet; Preemergence, Rate 250 g/ha",3
same,Sugarbeets plant response rating,sugar beet; [6],3
same,"Plant response rating, Sugarbeets",sugar beet; [7],2
same,Wild oats plant response rating,wild oat; [1],0
same,"Plant response rating, Wild oats",wild oat; [3],2
same,Wild oats plant response rating,wild oat; [4],0
same,Wild oats plant response rating,wild oat; [5],0
same,Wild oats plant response rating (0 to 10 scale),"wild oat; Preemergence, Rate 250 g/ha",4
same,Wild oats plant response rating,wild oat; [6],7
same,Rape plant response rating,rape; [1],0
same,Rape plant response rating,rape; [2],0
same,"Plant response rating, Rape",rape; [3],2
same,Rape plant response rating,rape; [4],0
same,Rape plant response rating,rape; [5],0
same,Rape plant response rating (0 to 10 scale),"rape; Preemergence, Rate 250 g/ha",0
same,Rape plant response rating,rape; [6],3
same,"Plant response rating, Rape",rape; [7],2
same,Bedstraw plant response rating,bedstraw; [1],0
same,"Plant response rating, Bedstraw",bedstraw; [3],0
same,Bedstraw plant response rating,bedstraw; [4],0
same,Bedstraw plant response rating,bedstraw; [5],0
same,Bedstraw plant response rating (0 to 10 scale),"bedstraw; Preemergence, Rate 250 g/ha",0
same,Bedstraw plant response rating,bedstraw; [6],0
same,Blackgrass plant response rating,blackgrass; [1],0
same,Blackgrass plant response rating,blackgrass; [2],4
same,"Plant response rating, Blackgrass",blackgrass; [3],4
same,Blackgrass plant response rating,blackgrass; [4],0
same,Blackgrass plant response rating,blackgrass; [5],5
same,Blackgrass plant response rating (0 to 10 scale),"blackgrass; Preemergence, Rate 250 g/ha",5
same,Blackgrass plant response rating,blackgrass; [6],9
same,"Plant response rating, Blackgrass",blackgrass; [7],4
same,Nutsedge plant response rating,purple nutsedge; [1],0
same,"Plant response rating, Nutsedge","purple nutsedge; Postemergence, Rate 500 g/ha",0
same,Nutsedge plant response rating,purple nutsedge; [4],0
same,Nutsedge plant response rating,purple nutsedge; [5],0
same,"Plant response rating, Nutsedge","purple nutsedge; Rate 250 g/ha, Postemergence",0
same,B. signalgrass plant response rating,surinam grass; [1],0
same,"Plant response rating, B. signalgrass",surinam grass; [3],8
same,B. signalgrass plant response rating,surinam grass; [4],2
same,B. signalgrass plant response rating,surinam grass; [5],6
same,"B. signalgrass plant response rating (0 to 10 scale, 0 is no effect, 10 is complete control)","surinam grass; Preemergence, Rate 250 g/ha",6
same,B. signalgrass plant response rating,surinam grass; [6],7
same,"Plant response rating, B. signalgrass",surinam grass; [7],3
same,Morningglory plant response rating,morningglory; [1],5
same,Morningglory plant response rating,morningglory; [2],7
same,"Plant response rating, Morningglory",morningglory; [3],10
same,Morningglory plant response rating,morningglory; [4],0
same,Morningglory plant response rating,morningglory; [5],2
same,Morningglory plant response rating (0 to 10 scale),"morningglory; Preemergence, Rate 250 g/ha",2
same,Morningglory plant response rating,morningglory; [6],4
same,"Plant response rating, Morningglory",morningglory; [7],10
same,Cocklebur plant response rating,cocklebur; [1],0
same,Cocklebur plant response rating,cocklebur; [2],0
same,"Plant response rating, Cocklebur",cocklebur; [3],2
same,Cocklebur plant response rating,cocklebur; [4],0
same,Cocklebur plant response rating,cocklebur; [5],0
same,Cocklebur plant response rating (0 to 10 scale),"cocklebur; Preemergence, Rate 250 g/ha",0
same,Cocklebur plant response rating,cocklebur; [6],0
same,"Plant response rating, Cocklebur",cocklebur; [7],0
same,Redroot pigweed plant response rating,pigweed; [1],3
same,"Plant response rating, Redroot pigweed",pigweed; [3],3
same,Redroot pigweed plant response rating,pigweed; [4],0
same,Redroot pigweed plant response rating,pigweed; [5],0
same,Redroot pigweed plant response rating (0 to 10 scale),"pigweed; Preemergence, Rate 250 g/ha",3
same,Redroot pigweed plant response rating,pigweed; [6],3
same,"Plant response rating, Redroot pigweed",pigweed; [7],3
same,Crabgrass plant response rating,crabgrass; [1],2
same,Crabgrass plant response rating,crabgrass; [2],3
same,"Plant response rating, Crabgrass",crabgrass; [3],9
same,Crabgrass plant response rating,crabgrass; [4],7
same,Crabgrass plant response rating,crabgrass; [5],8
same,Crabgrass plant response rating (0 to 10 scale),"crabgrass; Preemergence, Rate 250 g/ha",9
same,Crabgrass plant response rating,crabgrass; [6],9
same,"Plant response rating, Crabgrass",crabgrass; [7],8
same,Velvetleaf plant response rating,velvetleaf; [1],0
same,"Plant response rating, Velvetleaf",velvetleaf; [3],3
same,Velvetleaf plant response rating,velvetleaf; [4],0
same,Velvetleaf plant response rating,velvetleaf; [5],2
same,Velvetleaf plant response rating (0 to 10 scale),"velvetleaf; Preemergence, Rate 250 g/ha",6
same,Velvetleaf plant response rating,velvetleaf; [6],8
same,"Plant response rating, Velvetleaf",velvetleaf; [7],2
same,Soybean plant response rating,soybean; [1],0
same,"Plant response rating, Soybean",soybean; [3],5
same,Soybean plant response rating,soybean; [4],0
same,Soybean plant response rating,soybean; [5],0
same,Soybean plant response rating (0 to 10 scale),"soybean; Preemergence, Rate 250 g/ha",4
same,Soybean plant response rating,soybean; [6],8
same,"Plant response rating, Soybean",soybean; [7],5
same,Giant foxtail plant response rating,giant foxtail; [1],2
same,Giant foxtail plant response rating,giant foxtail; [2],3
same,"Plant response rating, Giant foxtail",giant foxtail; [3],9
same,Giant foxtail plant response rating,giant foxtail; [4],9
same,Giant foxtail plant response rating,giant foxtail; [5],9
same,Giant foxtail plant response rating (0 to 10 scale),"giant foxtail; Preemergence, Rate 250 g/ha",9
same,Giant foxtail plant response rating,giant foxtail; [6],9
same,"Plant response rating, Giant foxtail",giant foxtail; [7],7
same,Wheat plant response rating,wheat; [1],0
same,"Plant response rating, Wheat",wheat; [3],2
same,Wheat plant response rating,wheat; [4],0
same,Wheat plant response rating,wheat; [5],6
same,Wheat plant response rating (0 to 10 scale),"wheat; Preemergence, Rate 250 g/ha",7
same,Wheat plant response rating,wheat; [6],7

# From US6737383B1, “Herbicidal oxadiazolidines” (priority 1999, dated 2004)
